Assays:
myeloperoxidase (MPO) [1] = biological target: T1, myeloperoxidase (MPO) (Homo sapiens (Human), UniProt P05164); assay: MPO peroxidation assay (Amplex Red assay); type: biochemical; conditions: potency range class
Summary of the method: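 IC50 values come from a four-parameter fit of rates taken from the linear 180-540 s portion of a 15 min kinetic read of resorufin (Ex 535/Em 590 nm). Amplex Red (200 μM) plus 10 mM H2O2 was added after a 10 min room-temperature preincubation of inhibitor with 200 pM MPO and 40 nM H2O2 in 100 mM KPi, pH 7.4.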

myeloperoxidase (MPO) [2] = biological target: T1, myeloperoxidase (MPO); assay: MPO chlorination assay (APF assay); type: biochemical; conditions: potency range class
Summary of the method: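 Chlorinating activity followed by APF cleavage to fluorescein (485/535 nm, 3 min kinetic read) after adding APF and 10 μM H2O2. Beforehand, 200 pM enzyme, compound and 120 mM NaCl sat 10 min at room temperature in 100 mM KPi, pH 7.4. Initial-rate slopes gave % inhibition; IC50 by Hill-slope fit.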

T1 sequence (P05164 49-745): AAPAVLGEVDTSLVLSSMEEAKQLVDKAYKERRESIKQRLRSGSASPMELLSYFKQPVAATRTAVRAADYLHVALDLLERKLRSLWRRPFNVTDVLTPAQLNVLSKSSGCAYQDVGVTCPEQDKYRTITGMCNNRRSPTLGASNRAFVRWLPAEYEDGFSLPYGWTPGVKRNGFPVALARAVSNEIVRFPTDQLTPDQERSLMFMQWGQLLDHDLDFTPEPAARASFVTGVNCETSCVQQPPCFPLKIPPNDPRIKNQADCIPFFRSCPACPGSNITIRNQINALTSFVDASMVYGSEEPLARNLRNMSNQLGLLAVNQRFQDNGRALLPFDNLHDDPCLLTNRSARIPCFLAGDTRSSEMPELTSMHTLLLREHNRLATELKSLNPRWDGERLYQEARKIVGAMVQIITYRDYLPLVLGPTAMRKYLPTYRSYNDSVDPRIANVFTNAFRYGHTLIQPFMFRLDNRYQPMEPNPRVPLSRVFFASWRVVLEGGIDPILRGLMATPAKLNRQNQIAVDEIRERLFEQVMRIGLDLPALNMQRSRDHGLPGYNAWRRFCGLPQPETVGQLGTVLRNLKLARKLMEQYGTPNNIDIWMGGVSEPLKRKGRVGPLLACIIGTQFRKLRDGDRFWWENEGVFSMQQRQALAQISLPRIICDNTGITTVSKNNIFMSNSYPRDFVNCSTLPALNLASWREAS

IC50 (myeloperoxidase (MPO) [1]) [nM] | IC50 (myeloperoxidase (MPO) [2]) [nM] | Compound
101 to 999 | 1 to 100 | Nc1cc(Cc2cnn(Cc3cccc(N4CCNC5(CCCCC5)C4)c3)c2)c2nn[nH]c2n1 [Example 223, 7-({1-[(3-{1,4-Diazaspiro[5.5]undecan-4-yl}phenyl)methyl]-1H-pyrazol-4-yl}methyl)-3H-[1,2,3]triazolo[4,5-b]pyridin-5-amine]
101 to 999 | 1 to 100 | Nc1cc(Cc2cnn(Cc3cccc(N4C[C@@H]5C[C@H]4CN5)c3)c2)c2nn[nH]c2n1 [Example 224, 7-{[1-({3-[(1S,4S)-2,5-Diazabicyclo[2.2.1]heptan-2-yl]phenyl}methyl)-1H-pyrazol-4-yl]methyl}-3H-[1,2,3]triazolo[4,5-b]pyridin-5-amine]
101 to 999 | 1 to 100 | Nc1cc(Cc2cnn(Cc3cccc(N4CCNC5(CCC5)C4)c3)c2)c2nn[nH]c2n1 [Example 225, 7-({1-[(3-{5,8-Diazaspiro[3.5]nonan-8-yl}phenyl)methyl]-1H-pyrazol-4-yl}methyl)-3H-[1,2,3]triazolo[4,5-b]pyridin-5-amine]
1 to 100 | 101 to 999 | C[C@@H]1CN(c2cc(Cn3cc(Cc4cc(N)nc5[nH]nnc45)cn3)ccc2F)C[C@H](C)N1 [Example 226, 7-{[1-({3-[cis-3,5-Dimethylpiperazin-1-yl]-4-fluorophenyl}methyl)-1H-pyrazol-4-yl]methyl}-3H-[1,2,3]triazolo[4,5-b]pyridin-5-amine]
101 to 999 | 101 to 999 | Nc1cc(Cc2cnn(Cc3cccc(N4CCNCC4Cc4ccccc4)c3)c2)c2nn[nH]c2n1 (centres unmarked) [Example 227, 7-[(1-{[3-(2-Benzylpiperazin-1-yl)phenyl]methyl}-1H-pyrazol-4-yl)methyl]-3H-[1,2,3]triazolo[4,5-b]pyridin-5-amine]
101 to 999 | 101 to 999 | C[C@@H]1CN(c2cccc(Cn3cc(Cc4cc(N)nc5[nH]nnc45)cn3)c2)C[C@H](C)O1 [Example 228, 7-{[1-({3-[cis-2,6-Dimethylmorpholin-4-yl]phenyl}methyl)-1H-pyrazol-4-yl]methyl}-3H-[1,2,3]triazolo[4,5-b]pyridin-5-amine]
101 to 999 | 1 to 100 | Nc1cc(Cc2cnn(Cc3cccc(N4CC5C(N)C5C4)c3)c2)c2nn[nH]c2n1 [Example 229, (1R,5S,6S)-3-(3-{[4-({5-Amino-3H-[1,2,3]triazolo[4,5-b]pyridin-7-yl}methyl)-1H-pyrazol-1-yl]methyl}phenyl)-3-azabicyclo[3.1.0]hexan-6-amine]
1 to 100 | 1 to 100 | Nc1cc(Cc2cnn(Cc3cccc(Oc4cccc5c4CNC5)c3)c2)c2nn[nH]c2n1 [Example 231, 7-[(1-{[3-(2,3-Dihydro-1H-isoindol-4-yloxy)phenyl]methyl}-1H-pyrazol-4-yl)methyl]-3H-[1,2,3]triazolo[4,5-b]pyridin-5-amine]
1 to 100 | 101 to 999 | COC(=O)CNCc1cccc(Oc2cccc(Cn3cc(Cc4cc(N)nc5[nH]nnc45)cn3)c2)c1 [Example 232, Methyl 2-({[3-(3-{[4-({5-amino-3H-[1,2,3]triazolo[4,5-b]pyridin-7-yl}methyl)-1H-pyrazol-1-yl]methyl}phenoxy)phenyl]methyl}amino)acetate]
101 to 999 | 101 to 999 | Nc1cc(Cc2cnn(Cc3cccc(OCCC4CCc5ccccc54)c3)c2)c2nn[nH]c2n1 (centres unmarked) [Example 233, 7-{[1-({3-[2-(2,3-Dihydro-1H-inden-1-yl)ethoxy]phenyl}methyl)-1H-pyrazol-4-yl]methyl}-3H-[1,2,3]triazolo[4,5-b]pyridin-5-amine]
1 to 100 | 1 to 100 | Nc1cc(Cc2cnn(Cc3cccc(OC4CCCNC4)c3)c2)c2nn[nH]c2n1 (centres unmarked) [Example 234, 7-[(1-{[3-(Piperidin-3-yloxy)phenyl]methyl}-1H-pyrazol-4-yl)methyl]-3H-[1,2,3]triazolo[4,5-b]pyridin-5-amine]
101 to 999 | 101 to 999 | Nc1cc(Cc2cnn(Cc3cccc(OCC4CCc5ccccc54)c3)c2)c2nn[nH]c2n1 (centres unmarked) [Example 235, 7-[(1-{[3-(2,3-Dihydro-1H-inden-1-ylmethoxy)phenyl]methyl}-1H-pyrazol-4-yl)methyl]-3H-[1,2,3]triazolo[4,5-b]pyridin-5-amine]
1 to 100 | 1 to 100 | Nc1cc(Cc2cnn(Cc3cccc(Oc4cccc(C5CCNCC5)c4)c3)c2)c2nn[nH]c2n1 [Example 236, 7-{[1-({3-[3-(Piperidin-4-yl)phenoxy]phenyl}methyl)-1H-pyrazol-4-yl]methyl}-3H-[1,2,3]triazolo[4,5-b]pyridin-5-amine]
1 to 100 | 1 to 100 | Nc1cc(Cc2cnn(Cc3cccc(Oc4cccc5c4CNCC5)c3)c2)c2nn[nH]c2n1 [Example 237, 7-[(1-{[3-(1,2,3,4-Tetrahydroisoquinolin-8-yloxy)phenyl]methyl}-1H-pyrazol-4-yl)methyl]-3H-[1,2,3]triazolo[4,5-b]pyridin-5-amine]
1 to 100 | 1 to 100 | Nc1cc(Cc2cnn(Cc3cccc(Oc4cccc(C5CCCN5)c4)c3)c2)c2nn[nH]c2n1 (centres unmarked) [Example 238, 7-{[1-({3-[3-(Pyrrolidin-2-yl)phenoxy]phenyl}methyl)-1H-pyrazol-4-yl]methyl}-3H-[1,2,3]triazolo[4,5-b]pyridin-5-amine]
1 to 100 | 1 to 100 | Nc1cc(Cc2cnn(Cc3cccc(O[C@@H]4CCNC4)c3)c2)c2nn[nH]c2n1 [Example 239, 7-{[1-({3-[(3R)-Pyrrolidin-3-yloxy]phenyl}methyl)-1H-pyrazol-4-yl]methyl}-3H-[1,2,3]triazolo[4,5-b]pyridin-5-amine]
1 to 100 | 1 to 100 | Nc1cc(Cc2cnn(Cc3cccc(O[C@H]4CCNC4)c3)c2)c2nn[nH]c2n1 [Example 240, 7-{[1-({3-[(3S)-Pyrrolidin-3-yloxy]phenyl}methyl)-1H-pyrazol-4-yl]methyl}-3H-[1,2,3]triazolo[4,5-b]pyridin-5-amine]
1 to 100 | 101 to 999 | CN1CC[C@@H](Oc2cccc(Cn3cc(Cc4cc(N)nc5[nH]nnc45)cn3)c2)C1 [Example 241, 7-({1-[(3-{[(3R)-1-Methylpyrrolidin-3-yl]oxy}phenyl)methyl]-1H-pyrazol-4-yl}methyl)-3H-[1,2,3]triazolo[4,5-b]pyridin-5-amine]
1 to 100 | 1 to 100 | Nc1cc(Cc2cnn(Cc3cccc(OC[C@@H]4CCCN4)c3)c2)c2nn[nH]c2n1 [Example 242, 7-{[1-({3-[(2S)-Pyrrolidin-2-ylmethoxy]phenyl}methyl)-1H-pyrazol-4-yl]methyl}-3H-[1,2,3]triazolo[4,5-b]pyridin-5-amine]
1 to 100 | 1 to 100 | Nc1cc(Cc2cnn(Cc3cccc(OC[C@H]4CCCN4)c3)c2)c2nn[nH]c2n1 [Example 243, 7-{[1-({3-[(2R)-Pyrrolidin-2-ylmethoxy]phenyl}methyl)-1H-pyrazol-4-yl]methyl}-3H-[1,2,3]triazolo[4,5-b]pyridin-5-amine]
1 to 100 | 1 to 100 | Nc1cc(Cc2cnn(Cc3cccc(OC[C@@H]4CCNC4)c3)c2)c2nn[nH]c2n1 [Example 244]
101 to 999 | 101 to 999 | COC(=O)[C@@H]1C[C@@H](Oc2cccc(Cn3cc(Cc4cc(N)nc5[nH]nnc45)cn3)c2)CN1 [Example 245, Methyl (2S,4R)-4-(3-{[4-({5-amino-3H-[1,2,3]triazolo[4,5-b]pyridin-7-yl}methyl)-1H-pyrazol-1-yl]methyl}phenoxy)pyrrolidine-2-carboxylate]
1000 to 10000 | 1000 to 10000 | Cc1nnc([C@@H]2C[C@@H](Oc3cccc(Cn4cc(Cc5cc(N)nc6[nH]nnc56)cn4)c3)CN2)o1 [Example 246, 7-({1-[(3-{[(3R,5S)-5-(5-Methyl-1,3,4-oxadiazol-2-yl)pyrrolidin-3-yl]oxy}phenyl)methyl]-1H-pyrazol-4-yl}methyl)-3H-[1,2,3]triazolo[4,5-b]pyridin-5-amine]
101 to 999 | 101 to 999 | CN(C)C(=O)[C@@H]1C[C@@H](Oc2cccc(Cn3cc(Cc4cc(N)nc5[nH]nnc45)cn3)c2)CN1 [Example 247, (2S,4R)-4-(3-{[4-({5-Amino-3H-[1,2,3]triazolo[4,5-b]pyridin-7-yl}methyl)-1H-pyrazol-1-yl]methyl}phenoxy)-N,N-dimethylpyrrolidine-2-carboxamide]
1 to 100 | 101 to 999 | Nc1cc(Cc2cnn(Cc3cccc(O[C@H]4CN[C@H](CO)C4)c3)c2)c2nn[nH]c2n1 [Example 248, [(2S,4R)-4-(3-{[4-({5-Amino-3H-[1,2,3]triazolo[4,5-b]pyridin-7-yl}methyl)-1H-pyrazol-1-yl]methyl}phenoxy)pyrrolidin-2-yl]methanol]
1 to 100 | 101 to 999 | NCc1cccc(Cn2cc(Cc3cc(N)nc4[nH]nnc34)cn2)c1 [Example 249, 7-[(1-{[3-(Aminomethyl)phenyl]methyl}-1H-pyrazol-4-yl)methyl]-3H-[1,2,3]triazolo[4,5-b]pyridin-5-amine]
1 to 100 | 1 to 100 | NCc1ccc(Cn2cc(Cc3cc(N)nc4[nH]nnc34)cn2)cc1 [Example 250, 7-[(1-{[4-(Aminomethyl)phenyl]methyl}-1H-pyrazol-4-yl)methyl]-3H-[1,2,3]triazolo[4,5-b]pyridin-5-amine]
1 to 100 | 101 to 999 | CN(C)CC(=O)NCc1ccc(Cn2cc(Cc3cc(N)nc4[nH]nnc34)cn2)cc1 [Example 251, N-[(4-{[4-({5-Amino-3H-[1,2,3]triazolo[4,5-b]pyridin-7-yl}methyl)-1H-pyrazol-1-yl]methyl}phenyl)methyl]-2-(dimethylamino)acetamide]

Reference: US10407422B2, “Triazolopyridine inhibitors of myeloperoxidase” (priority 2015, dated 2019)
